Assay results: patent publication US12569467B2, “Small molecules that treat or prevent viral infections” (priority 2022, dated 2026)

How the values were obtained:
[1] = molecular target: SARS-CoV2 spike protein (Severe acute respiratory syndrome coronavirus 2, UniProt P0DTC2); assay type: binding
[2] = tested on: HEK293 cells; details: PrestoBlue, various concentrations, within the indicated concentrations (FIG. 3E)

Which “difference of thermal stability (Tm) in presence versus absence of compound” value [1] does the source give for `O=C1Nc2ccccc2/C1=C\c1ccc(-c2cc(C(F)(F)F)cc(C(F)(F)F)c2)o1` [CD04872SC, 3-({5-[3,5-di(trifluoromethyl)phenyl]-2-furyl}methylidene)indolin-2-one] here?
Its value is “about 3 Celsius degrees”.

What about the cell cytotoxicity [2] of the same compound?
The cell cytotoxicity was “without major cell cytotoxicity”.
